Where a name gives a salt, the structure may show the parent alone. Read-outs that look alike come from different tables or passages of the source.
Experiments:
5-HT2A receptor [1] = target: T1, 5-HT2A receptor (Homo sapiens (Human), UniProt P28223); assay: FLIPR Ca2+ flux functional assay, agonist activity at 5-HT2A; type: cell-based
Experimental: (§1) Functional Assays at 5-HT2A, 5-HT2B, and 5-HT1A Receptors. Agonist activity at 5-HT2A, 5-HT2B, and 5-HTIA receptors was determined using a FLIPR Ca^2− flux assay at WuXi AppTec (Hong Kong) Limited according to their standard protocols. Briefly, stably transfected cells expressing the receptor of interest (HEK293 for 5-HT2A and 5-HT2B; CHO cells for 5-HT1A) were grown and plated in a 384-well plate and incubated at 37° C. and 5% CO2 overnight. A solution of 250 mM probenecid in 1 mL FLIPR assay buffer was prepared fresh. This was combined with a fluorescent dye (Fluo-4 Direct™) to make a final assay concentration of 2.5 mM. Compounds were diluted 1:3.16 for 10 points and 750 nL was added to a 384-well compound plate using ECHO along with 30 μL of assay buffer. The fluorescent dye was then added to the assay plate along with assay buffer to a final volume of 40 μL. The cell plate was incubated for 50 min at 37° C.and 5% CO2 and placed into the FLIPR Tetra along with the compound plate. 10 μL of references and compounds were then transferred from the compound plate into the cell plate and the fluorescent signal was read.

[2] = test system: rat forced swim test (FST); assay: Forced swim test in rats; type: in vivo; conditions: s.c., 23.5-h pre-treatment time
Experimental: Compound 1 is tested for antidepressant-like activity in the rat forced swim test (FST). The compound induces antidepressant-like effects with a 23.5-h pre-treatment time.
Animals. Male Sprague Dawley rats, aged 9-10 weeks, are used in this experiment. Animals are housed in groups of 2 under controlled temperature (22+3°C.) and relative humidity (30-70%) conditions, with 12-hour light/dark cycles, and with ad libitum food and water. This study is carried out in strict accordance with the requirements of the Committee for the Purpose of Control and Supervision of Experiments on Animals (CPCSEA), India. All efforts are made to minimize suffering.
Drugs and Drug Administration. Test compound, saline vehicle, and the positive control desipramine are administered subcutaneously (s.c.), with doses calculated based on the free base. Normal saline is used as the vehicle (or acidified saline in the case of free bases). All compounds are administered at a volume of 5 mL/kg. Test compound and vehicle are administered 0.5 h after the start of the training swim (Swim 1) and 23.5 h before the test swim (Swim 2). […]
Behavioral scoring is conducted by observers who are blind to the treatment groups. Animals are continuously observed during Swim 2 and the total time spent engaging in the following behaviors is recorded: immobile, swimming, and climbing. […]

rat synaptosomes = assay: Synaptosome 5-HT release assay; type: biochemical; conditions: for EC50: rat synaptosomes preloaded with [3H]5-HT, 10 mins
Experimental: Synaptosome 5-HT Release Assay. Synaptosome release assays were conducted according to modifications of previously described procedures (Partilla et al. (2016). Interrogating the Activity of Ligands at Monoamine Transporters in Rat Brain Synaptosomes. In Neurotransmitter Transporters (pp. 41-52). Springer.). Briefly, synaptosomes were prepared from rat brains. Male
Sprague-Dawley rats were rendered unconscious with CO2 and their brains were immediately removed. The cerebella were discarded and the whole brains (minus striatum) were placed in ice-cold 0.32 M sucrose (10 mL per brain) and gently homogenized by hand. The homogenate of each brain was centrifuged at 1,000×g at 4° C.for 10 mins and the resulting supernatant was diluted with ice-cold 0.32 M sucrose to a total volume of 10 mL to provide the synaptosome solution. […] The incubations were allowed to reach equilibrium for 2 h at 25° C. For the release reactions, 425 μL of preloaded synaptosomes were added to test tubes containing 75 μL of test drugs diluted in KPB containing 1 mg/mL BSA. After 10 mins, the release reaction was stopped using a cell harvester by rapid vacuum filtration over GF/B filter paper presoaked in wash buffer (10 mM Tris-HCl, pH 7.4, 150 mM NaCl) and the filters were washed with additional wash buffer. Filters were dried for 1 h at 60° C.and retained radioactivity was quantified using a MicroBeta 2 liquid scintillation counter. The amount of retained radioactivity was inversely proportional to the extent of release.

5-HT1A receptor = 5-HT1A receptor (Homo sapiens (Human), UniProt P08908); assay: FLIPR Ca2+ flux functional assay, agonist activity at 5-HT1A; type: cell-based; conditions: for Emax: read-out: 5-HT1A Emax
Experimental: as §1

5-HT2A receptor [3] = target: T1, 5-HT2A receptor; assay: 5-HT2A receptor radioligand binding with [3H]ketanserin; conditions: HEK293 stable cell line, 1 nM [3H]ketanserin, 1 h, 25° C.
5-HT2B receptor = 5-HT2B receptor (Homo sapiens (Human), UniProt P41595); assay: FLIPR Ca2+ flux functional assay, agonist activity at 5-HT2B; type: cell-based; conditions: for Emax: HEK293 stably transfected cells, Ca2+ flux
Experimental: as §1

[4] = HEK293 stably transfected cells, Ca2+ flux

5-HT2B receptor, sequence (P41595 whole entry, looked up): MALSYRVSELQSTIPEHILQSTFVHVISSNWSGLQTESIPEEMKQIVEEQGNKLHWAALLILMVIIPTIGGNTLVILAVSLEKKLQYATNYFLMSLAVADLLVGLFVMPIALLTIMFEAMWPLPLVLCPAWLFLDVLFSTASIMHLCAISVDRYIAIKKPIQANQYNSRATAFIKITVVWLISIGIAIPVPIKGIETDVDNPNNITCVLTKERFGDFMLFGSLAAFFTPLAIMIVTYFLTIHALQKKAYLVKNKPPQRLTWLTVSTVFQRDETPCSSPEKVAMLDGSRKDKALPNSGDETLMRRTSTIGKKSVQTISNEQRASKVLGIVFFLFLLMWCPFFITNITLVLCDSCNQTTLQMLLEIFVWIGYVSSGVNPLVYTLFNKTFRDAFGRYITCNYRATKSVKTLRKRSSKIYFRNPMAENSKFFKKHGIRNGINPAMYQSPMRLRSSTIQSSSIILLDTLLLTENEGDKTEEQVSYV

| Structure (SMILES) | EC50 (5-HT2A receptor [1]) | agonist activity at the 5-HT2A receptor (in words) (5-HT2A receptor [1]; Ca2+ flux) | agonist type at the 5-HT2A receptor (in words) (5-HT2A receptor [1]; Ca2+ flux) | Emax (5-HT2A receptor [1]; [4]) | immobility time relative to vehicle control [2] | 5-HT releaser potency compared to 5-MeO-DMT (in words) (rat synaptosomes; rat synaptosomes) | EC50 (rat synaptosomes) | % Release @ Max Dose (10 μM) (rat synaptosomes; rat synaptosomes) | EC50 (5-HT1A receptor) | Emax (5-HT1A receptor) | Ki (5-HT2A receptor [3]) | EC50 (5-HT2B receptor) | Emax (5-HT2B receptor) | EC50 (5-HT2A receptor [1]; HEK293 stably transfected cells, Ca2+ flux, read-out: 5-HT2A EC50) |
| --- | --- | --- | --- | --- | --- | --- | --- | --- | --- | --- | --- | --- | --- | --- |
| CN(C)CCc1c[nH]c2ccc(OC(F)(F)F)cc12 [Compound 1, N,N-dimethyl-2-(5-(trifluoromethoxy)-1/-indol-3-yl)ethan-1-amine hydrochloride] | 127 nM | potent agonist activity | partial agonist rather than a full agonist | 78.9% | reduces immobility time relative to vehicle control in a dose-dependent manner | much more potent releaser of 5-HT | 192 nM | 58.77% | 6330 nM | 81.8% | 890 nM | 762 nM | 19.6% |  |
| COc1ccc2[nH]cc(CCN(C)C)c2c1 [Compound 5-MeO-DMT, 5-methoxy-N,N-dimethyltryptamine, reference compound] |  |  |  | 106% |  |  | 3950 nM | 54.63% |  | 100% |  |  | 17.6% |  |
| CN(C)CCc1c[nH]c2ccccc12 [DMT, N,N-dimethyltryptamine, reference compound] |  |  |  | 93.4% |  |  | 80.8 nM | 80.77% |  | 70.2% | 416 nM |  | 42.8% | 22.2 nM |
